Results on 20 molecules are retold here after patent US7550492B2, “Benzo[1,2,5]thiadiazole compounds” (Janssen Pharmaceutica N.V., priority 2003, dated 2009).

One data set has as its target T1, CCK2 receptor (Homo sapiens, UniProt P32239).
T1 construct: Membranes were prepared from the HEKZFP cells after induction; endogenous in cells
T1 sequence (P32239 1-447): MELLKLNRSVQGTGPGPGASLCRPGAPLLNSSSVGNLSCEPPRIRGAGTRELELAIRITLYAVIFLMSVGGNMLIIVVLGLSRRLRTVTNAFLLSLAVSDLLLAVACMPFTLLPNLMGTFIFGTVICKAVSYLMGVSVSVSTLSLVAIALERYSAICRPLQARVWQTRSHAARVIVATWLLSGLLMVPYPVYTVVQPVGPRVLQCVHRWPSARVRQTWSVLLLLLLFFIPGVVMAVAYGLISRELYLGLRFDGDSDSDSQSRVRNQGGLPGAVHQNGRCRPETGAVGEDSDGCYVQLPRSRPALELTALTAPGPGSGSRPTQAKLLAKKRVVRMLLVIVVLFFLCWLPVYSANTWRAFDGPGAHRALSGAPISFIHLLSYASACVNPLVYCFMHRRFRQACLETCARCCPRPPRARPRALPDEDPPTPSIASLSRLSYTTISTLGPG
The data set can be described thus: Binding Assay: competition with [125I]-BH-CCK-8S in HEKZFP cell membranes. To be noted: 60 min at 21±3° C., Cheng-Prusoff. The protocol:
Zinc Finger Proteins (ZFP) specific for the CCK2R gene were identified by Sangamo Biosciences. The ZFP domain was fused with the herpes simplex virus VP16 activation domain, and the fusion protein was subsequently cloned into the pcDNA3 mammalian expression vector (Invitrogen, San Diego, Calif.). Tet-inducible cell lines expressing the coding region from the ZFP vector were created using the T-REx-293™ cell line (Invitrogen). After 2 weeks of selection in culture medium containing […] Zeocin (Invitrogen), sixty drug-resistant stable clones were isolated and analyzed for ZFP expression as well as CCK2R induction upon addition of doxycycline to the culture medium. The cell line with the most appropriate CCK2R ZFP construct was used in all further assays and was termed the HEKZFP cell line.
HEKZFP cells were grown in DMEM supplemented with L-glutamine (2 mM), penicillin (50 units/mL) and streptomycin (50 μg/mL) and 10% FBS (v/v). HEKZFP cells were treated with […] doxycycline (Sigma-Aldrich, MO; USA) for 2 days to de-repress the tet-regulated expression of the CCK2 receptor selective zinc finger proteins and were harvested using a rubber cell scraper.
Membranes were prepared from the HEKZFP cells after induction. Frozen cell pellets (−40° C.) were thawed in 14 mL of buffer A (10 mM HEPES, 130 mM NaCl, 4.7 mM KCl, 5 mM MgCl, 1 mM EGTA and 15.4 mg/100 mL bacitracin at pH 7.2), adapted from E. A. Harper et al. (Br. J. Pharmacol. (1996) 118(7):1717-1726). The thawed pellets were homogenized using a Polytron PT-10 (7×1 s). The homogenates were centrifuged for 5 min at 1500 rpm (600×g), and the resulting pellets were discarded. The supernatants were re-centrifuged in order to collect the receptor-membrane pellets (25 min 15,000 rpm; 39,000×g), which were re-suspended in buffer A.
All assays were conducted in 96-well plate (GF/B millipore filter plates) using buffer A. For the optimal cell number determination experiments, cells in concentrations ranging from 2.5×10^5 to 12.5×10^5 cells/well were incubated with 20 pM [^125I]-BH-CCK-8S (50 μL 60 pM) solution) in a total volume of 150 μL. Total binding of [^125I]-BH-CCK-8S was determined in the presence of 15 μL of buffer A. Non-specific binding of [^125I]-BH-CCK-8S was determined in the presence of 15 μL of 10 μM YF476, a CCK-2 receptor selective antagonist that is structurally unrelated to the radioligand [^125I]-BH-CCK-8S. The assay preparation was incubated for 1 h at 21±3° C., and then the assay was terminated by rapid filtration of the preparation under reduced pressure. The loaded filters were washed three times using undiluted PBS (100 μL), and then 100 μL of scintillation fluid was added to the filter plate. Bound radioactivity was determined using a Topcount (Packard BioScience, Meriden, Conn.) with a count time of 1 min. From these experiments a cell concentration of 1 pellet in 15 mL of buffer was chosen for use in other assays. To validate the radioligand concentration and incubation time for the assay, saturation and kinetic binding studies were also conducted (see M. F. Morton, The Pharmacological Characterization of Cholecystokinin Receptors in the Human Gastrointestinal Tract. PhD Thesis, University of London, 2000). […] The assay was then terminated according to the procedure outlined above.
The pKi values were determined using the equation of Y.-C. Cheng and W. H. Prusoff (Biochem. Pharmacol., 1973, 22(23):3099-3108):
To circumvent problems associated with computer-assisted data analysis of compounds with low affinity, the data obtained in the current study were weighted according to a method described by Morton. In brief, 100% and 0% specific binding were defined independently using total binding and binding obtained in the presence of a high concentration of the reference antagonist, 2-NAP.

Each structure is given as a SMILES string. Where a name gives a salt, the structure may show the parent alone.

For orientation: pKi means the negative decadic logarithm of the Ki, by convention in mol/L. The low end stands for a high Ki, the high end for a low Ki. As usually defined, the Ki is the dissociation constant of the complex between target and ligand, obtained from inhibition or displacement. As a reminder, the melting point is the temperature of the solid-liquid transition.

Consider `O=C(c1ccc([N+](=O)[O-])cc1NS(=O)(=O)c1cccc2nsnc12)N1CCCCC1` [Example 2, Benzo[1,2,5]thiadiazole-4-sulfonic acid [5-nitro-2-(piperidine-1-carbonyl)-phenyl]-amide], for which the negative logarithm of the Ki (pKi) at CCK2 receptor is 6.8.

For `O=C(c1cc2ccccc2cc1NS(=O)(=O)c1cccc2nsnc12)N1CCCCC1` [Example 4, Benzo[1,2,5]thiadiazole-4-sulfonic acid [3-(piperidine-1-carbonyl)-naphthalen-2-yl]-amide], the Ki at CCK2 receptor is 100 nM. The same measure, in the same setting: with `O=C(c1ccc(I)cc1NS(=O)(=O)c1cccc2nsnc12)N1CCCCC1` [Example 6, Benzo[1,2,5]thiadiazole-4-sulfonic acid [5-iodo-2-(piperidine-1-carbonyl)-phenyl]-amide] the figure was 3.98 nM; with `O=C(c1ccc(-c2cccs2)cc1NS(=O)(=O)c1cccc2nsnc12)N1CCCCC1` [Example 22, Benzo[1,2,5]thiadiazole-4-sulfonic acid [2-(piperidine-1-carbonyl)-5-thiophen-2-yl-phenyl]-amide], 200 nM. `O=C(c1cc(Cl)c(Cl)cc1NS(=O)(=O)c1cccc2nsnc12)N1CCCCC1` [Example 36, Benzo[1,2,5]thiadiazole-4-sulfonic acid [4,5-dichloro-2-(piperidine-1-carbonyl)-phenyl]-amide]: the melting point was 178 to 179 °C. This molecule came in with a pKi on CCK2 receptor of 7.8. `CC(C)c1ccc(C(=O)N2CCCCC2)c(NS(=O)(=O)c2cccc3nsnc23)c1` [Example 37, Benzo[1,2,5]thiadiazole-4-sulfonic acid [5-isopropyl-2-(piperidine-1-carbonyl)-phenyl]-amide] displayed a melting point of 125 to 127 °C.

Molecule `CN(C)CC(c1ccccc1)N(C)C(=O)c1ccc(Cl)cc1NS(=O)(=O)c1cccc2nsnc12` (stereo not drawn) [Example 48, 2-(Benzo[1,2,5]thiadiazole-4-sulfonylamino)-4-chloro-N-(2-dimethylamino-1-phenyl-ethyl)-N-methylbenzamide TFA salt] had a Ki at CCK2 receptor of 398 nM. On the same count and under the same terms, then `CN(C(=O)c1ccc(Cl)cc1NS(=O)(=O)c1cccc2nsnc12)c1ccccc1` [Example 58, 2-(Benzo[1,2,5]thiadiazole-4-sulfonylamino)-4-chloro-N-methyl-N-phenyl-benzamide], with 126 nM. Same read-out and setting: then `CCCCNC(=O)c1ccc(Cl)cc1NS(=O)(=O)c1cccc2nsnc12` [Example 59, 2-(Benzo[1,2,5]thiadiazole-4-sulfonylamino)-N-butyl-4-chloro-benzamide], with 631 nM. The molecule `CC1CCCCN1C(=O)c1ccc(Cl)cc1NS(=O)(=O)c1cccc2nsnc12` (stereo not drawn) [Example 70, Benzo[1,2,5]thiadiazole-4-sulfonic acid [5-chloro-2-(2-methyl-piperidine-1-carbonyl)-phenyl]-amide] returned a negative-log Ki (pKi) on CCK2 receptor of 7.5. Same read-out and setting: with `O=C(c1ccc(Cl)cc1NS(=O)(=O)c1cccc2nsnc12)N1CCSC1` [Example 79, Benzo[1,2,5]thiadiazole-4-sulfonic acid [5-chloro-2-(thiazolidine-3-carbonyl)-phenyl]-amide] the figure was 7.1. On to `CC(c1ccc(F)cc1)N(C)C(=O)c1ccc(I)cc1NS(=O)(=O)c1cccc2nsnc12` (stereo not drawn) [Example 105, 2-(Benzo[1,2,5]thiadiazole-4-sulfonylamino)-N-[1-(4-fluoro-phenyl)-ethyl]-4-iodo-N-methyl-benzamide], for which the Ki at CCK2 receptor was 10 nM. On the same count and under the same terms, with `CN(Cc1ccc(F)cc1F)C(=O)c1ccc(Br)cc1NS(=O)(=O)c1cccc2nsnc12` [Example 111, 2-(Benzo[1,2,5]thiadiazole-4-sulfonylamino)-4-bromo-N-(2,4-difluoro-benzyl)-N-methyl-benzamide] the figure was 15.8 nM.

`CC(c1ccc(F)cc1)N(C)C(=O)c1ccc(Br)cc1NS(=O)(=O)c1cccc2nsnc12` (stereo not drawn) [Example 112, 2-(Benzo[1,2,5]thiadiazole-4-sulfonylamino)-4-bromo-N-[1-(4-fluoro-phenyl)-ethyl]-N-methyl-benzamide] showed an inhibition constant (Ki) at CCK2 receptor of 5.01 nM. Still for that read-out and setting: then `CON(C)C(=O)c1ccc(Br)cc1NS(=O)(=O)c1cccc2nsnc12` [Example 117, 2-(Benzo[1,2,5]thiadiazole-4-sulfonylamino)-4-bromo-N-methoxy-N-methyl-benzamide], with 398 nM; and `C[C@H](c1ccccc1)N(C)C(=O)c1cc(Cl)ccc1NS(=O)(=O)c1cccc2nsnc12` [Example 118, (R)-2-(Benzo[1,2,5]thiadiazole-4-sulfonylamino)-5-chloro-N-methyl-N-(1-phenyl-ethyl)-benzamide], with 126 nM. Consider `O=C(c1ccc(I)cc1NS(=O)(=O)c1cccc2nsnc12)N1CCOCC1` [Example 138, Benzo[1,2,5]thiadiazole-4-sulfonic acid [5-iodo-2-(morpholine-4-carbonyl)-phenyl]-amide], for which, on CCK2 receptor, the pKi is listed as 7.5. In the case of `C[C@@H](NC(=O)c1ccc(Br)cc1NS(=O)(=O)c1cccc2nsnc12)c1ccc(F)cc1F` [Example 155], at CCK2 receptor, the Ki was 25.1 nM. Regarding `Cc1ccc(C(=O)N[C@H](C)c2ccc(F)cc2F)c(NS(=O)(=O)c2cccc3nsnc23)c1` [Example 167, (R)-2-(Benzo[1,2,5]thiadiazole-4-sulfonylamino)-N-[1-(2,4-difluoro-phenyl)-ethyl]-4-methyl-benzamide], the inhibition constant Ki on CCK2 receptor is 25.1 nM. The same measure, in the same setting: then `C[C@H](c1ccccc1)N(C)C(=O)c1ccc(C(F)(F)F)cc1NS(=O)(=O)c1cccc2nsnc12` [Example 195, (R)-2-(Benzo[1,2,5]thiadiazole-4sulfonylamino)-N-methyl-N-(1-phenyl-ethyl)-4-trifluoromethyl-benzamide], with 7.94 nM.
